The values that follow are results of earlier work, collected in patent publication US8785427B2, “Enzymatic process for obtaining 17 alpha-monoesters of cortexolone and/or its 9,11-dehydroderivatives” (Cosmo Dermatos Srl, priority 2007, dated 2014).

For the series the following is noted: both in vitro and in vivo on the animal; described in EP1421099.

In the case of `CCCC(=O)O[C@]1(C(=O)CO)CC[C@H]2[C@@H]3CCC4=CC(=O)CC[C@]4(C)C3=CC[C@@]21C` [9,11-dehydro-cortexolone-17-α-butanoate, 9,11-Dehydro-Cortexolone-17α-Butanoate], the antiandrogenic biological activity result is on record as “high antiandrogenic biological activity”.

As for `CCC(=O)O[C@]1(C(=O)CO)CC[C@H]2[C@@H]3CCC4=CC(=O)CC[C@]4(C)[C@H]3CC[C@@]21C` [cortexolone 17α-propionate], the antiandrogenic biological activity entry is on record as “high antiandrogenic biological activity”.
